pIC50: −log10 of the molar value. Where two headings read alike, the source gives them in different places.

In general, pIC50 refers to the IC50 on a negative log10 scale, so that one unit is a factor of ten.

One test deals with Human Full Length PARG (Homo sapiens (Human), UniProt Q86W56). Nature of the test: PARG enzyme assay (TR-FRET). The format is biochemical. A general note: In TR-FRET formats the signal depends on donor and acceptor labels being close together.
Another test relates to PARG in HeLa cell line. The experiment in a line: PARG cell assay (PAR chain immunofluorescence after MMS). The format is cell-based. The conditions noted are these: HeLa cells. The method, then: This method is based on the detection of endogenous levels of poly (ADP) ribose chains present in the nucleus of HeLa cell line using indirect immunofluorescence. MMS stimulation increases PAR chains for up to 25 mins. After that point, PARG is active and breaks down the PAR chains, until by one hour after stimulation no PAR chains are detectable. Inhibition of PARG maintains PAR chains.
Briefly, following compound treatment and treatment with the DNA damaging agent methylmethanesulfonate (MMS), the cell monolayer is fixed, then permeabilised and incubated with a mouse monoclonal antibody raised against multimers of poly(ADP) ribose.
At the end of the 1 h dosing period, MMS was added to duplicates at a final concentration of 50 μg/mL, for a further hour.
Media was tipped off and the cells fixed with 50 μL ice-cold 95% MetOH/PBS for 15 mins at −20° C. Following a PBS wash, 50 μL PBS/0.1% Triton was added to the cells for 20 mins. Following another PBS wash, anti-PAR antibody (Calbiochem AM80) was diluted 1:4000 in a buffer (PBS+0.5% FBS+0.05% Tween20) and added to the cells and incubated overnight at 4° C.
Cells were washed three times with PBS and the plate sealed with a light-proof seal.

Where [1] appears, read: MMS treatment, read-out: PARG Cell IC50.
The mark [2] stands for this setting: Homo sapiens, MMS treatment, read-out: PARG Cell IC50.
Where [3] appears, read: read-out: PARG Biochem IC50 Geomean.
The mark [4] stands for this setting: MMS 50 μg/mL, read-out: PARG Cell IC50 Geomean.
Where [5] appears, read: Homo sapiens, MMS 50 μg/mL, read-out: PARG Cell IC50 Geomean.

Human Full Length PARG, sequence (Q86W56 whole entry): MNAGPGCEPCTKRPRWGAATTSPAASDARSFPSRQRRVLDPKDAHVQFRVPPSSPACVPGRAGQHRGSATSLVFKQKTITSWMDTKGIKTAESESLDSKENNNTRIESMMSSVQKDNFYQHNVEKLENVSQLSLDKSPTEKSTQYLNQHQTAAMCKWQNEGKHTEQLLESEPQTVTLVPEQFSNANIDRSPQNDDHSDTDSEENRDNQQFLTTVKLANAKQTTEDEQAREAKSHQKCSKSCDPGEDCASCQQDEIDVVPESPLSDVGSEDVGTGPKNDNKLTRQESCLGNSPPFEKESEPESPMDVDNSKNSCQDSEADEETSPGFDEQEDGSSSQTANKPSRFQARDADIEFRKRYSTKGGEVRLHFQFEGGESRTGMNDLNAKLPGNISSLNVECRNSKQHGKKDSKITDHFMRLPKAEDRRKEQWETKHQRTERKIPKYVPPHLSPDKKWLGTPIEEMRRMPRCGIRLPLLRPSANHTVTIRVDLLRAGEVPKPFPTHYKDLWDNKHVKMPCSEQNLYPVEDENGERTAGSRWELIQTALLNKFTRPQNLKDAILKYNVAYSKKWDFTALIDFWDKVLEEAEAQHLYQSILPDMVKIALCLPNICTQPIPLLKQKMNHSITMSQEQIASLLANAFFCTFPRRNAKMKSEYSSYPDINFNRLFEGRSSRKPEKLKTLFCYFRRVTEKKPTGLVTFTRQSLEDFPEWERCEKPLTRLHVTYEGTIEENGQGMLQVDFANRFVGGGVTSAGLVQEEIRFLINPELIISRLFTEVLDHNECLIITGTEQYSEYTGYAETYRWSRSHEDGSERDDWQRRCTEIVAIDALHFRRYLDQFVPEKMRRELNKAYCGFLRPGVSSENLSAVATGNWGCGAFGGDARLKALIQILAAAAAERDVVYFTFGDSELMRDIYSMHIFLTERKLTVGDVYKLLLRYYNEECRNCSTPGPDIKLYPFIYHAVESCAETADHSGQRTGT

Take `Cn1cc(Cn2c(=O)c3cc(S(=O)(=O)NC4(CF)CC4)ccc3n(CCc3ccccn3)c2=O)cn1` [Example 566, N-[1-(Fluoromethyl)cyclopropyl]-3-[(1-methylpyrazol-4-yl)methyl]-2,4-dioxo-1-[2-(2-pyridyl)ethyl]quinazoline-6-sulfonamide]: the negative logarithm of the IC50 (pIC50) on Human Full Length PARG (read-out: PARG Biochem IC50) was 6.16; in the test on PARG in HeLa cell line (setting [1]), 6.25.

`Cn1cc(Cn2c(=O)c3cc(S(=O)(=O)NC4(CF)CC4)ccc3n(C)c2=O)cn1` [Example 408, N-[1-(Fluoromethyl)cyclopropyl]-1-methyl-3-[(1-methylpyrazol-4-yl)methyl]-2,4-dioxo-quinazoline-6-sulfonamide]: the pIC50 is 6.19 on Human Full Length PARG (read-out: PARG Biochem IC50) and 6.54 in the test with PARG in HeLa cell line (setting [2]).

For `Cn1ncc(Cn2c(=O)c3cc(S(=O)(=O)NC4(CF)CC4)ccc3n(C)c2=O)n1` [Example 626, N-[1-(Fluoromethyl)cyclopropyl]-1-methyl-3-[(2-methyltriazol-4-yl)methyl]-2,4-dioxo-quinazoline-6-sulfonamide], the pIC50 was 5.50 on Human Full Length PARG (read-out: PARG Biochem IC50) and 5.74 with PARG in HeLa cell line (setting [1]).

As for `Cc1cc(Cn2nc(C3CC3)c3ccc(S(=O)(=O)NC4(C)CC4)cc3c2=O)on1` [Example 313], the results for the pIC50 at Human Full Length PARG (setting [3]) and with PARG in HeLa cell line (setting [4]) were 6.46 and 6.38, respectively. `Cc1nc(Cn2c(=O)n(Cc3cnn(C)c3)c(=O)c3cc(S(=O)(=O)NC4(CF)CC4)ccc32)cs1` [Example 582, N-[1-(Fluoromethyl)cyclopropyl]-3-[(1-methylpyrazol-4-yl)methyl]-1-[(2-methylthiazol-4-yl)methyl]-2,4-dioxo-quinazoline-6-sulfonamide]: the pIC50 at Human Full Length PARG (read-out: PARG Biochem IC50) is 6.80; in the test on PARG in HeLa cell line (setting [2]) it was 7.14. Turning to `Cc1cc(Cn2c(=O)n(Cc3cnn(C)c3)c(=O)c3cc(S(=O)(=O)NC4(C#N)CC4)ccc32)n(C)n1` [Example 345], the pIC50 at Human Full Length PARG (setting [3]) is 7.21; in the test on PARG in HeLa cell line (setting [5]) it was 5.54. For `CC1(NS(=O)(=O)c2ccc3c(c2)c(=O)n(CC#N)c(=O)n3Cc2ccc(F)cc2)CC1` [Example 186] the same measures were 6.36 and 6.51. For `Cn1cc(Cn2c(=O)[nH]c3cc(F)c(S(=O)(=O)NC4(C)CC4)cc3c2=O)cn1` [Example 384, 7-Fluoro-N-(1-methylcyclopropyl)-3-[(1-methylpyrazol-4-yl)methyl]-2,4-dioxo-1H-quinazoline-6-sulfonamide], the figures for the pIC50 at Human Full Length PARG (setting [3]) and in the test with PARG in HeLa cell line (setting [4]) were 6.43 and 6.01, respectively.

Take `CC(C)CCn1c(=O)n(Cc2cnn(C)c2)c(=O)c2cc(S(=O)(=O)NC3(CF)CC3)ccc21` [Example 613, N-[1-(Fluoromethyl)cyclopropyl]-1-isopentyl-3-[(1-methylpyrazol-4-yl)methyl]-2,4-dioxo-quinazoline-6-sulfonamide]: the pIC50 is 7.38 at Human Full Length PARG (read-out: PARG Biochem IC50) and 7.25 with PARG in HeLa cell line (setting [2]). For `Cc1cc(Cn2c(=O)c3cc(S(=O)(=O)NC4(C)CC4)ccc3n(CC(F)F)c2=O)on1` [Example 324], the pIC50 on Human Full Length PARG (setting [3]) is 6.48; in the test with PARG in HeLa cell line (setting [5]) it was 6.57. As to `Cn1cc(Cn2c(=O)c3cc(S(=O)(=O)NC4(CF)CC4)ccc3n(Cc3nncn3C)c2=O)cn1` [Example 584, N-[1-(Fluoromethyl)cyclopropyl]-3-[(1-methylpyrazol-4-yl)methyl]-1-[(4-methyl-1,2,4-triazol-3-yl)methyl]-2,4-dioxo-quinazoline-6-sulfonamide], the pIC50 is 6.77 on Human Full Length PARG (read-out: PARG Biochem IC50) and 4.59 in the test with PARG in HeLa cell line (setting [1]).

For `Cc1cc(Cn2c(=O)n(Cc3cnn(C)c3)c(=O)c3cc(S(=O)(=O)NC4(C#N)CC4)c(F)cc32)on1` [Example 404, N-(1-Cyanocyclopropyl)-7-fluoro-1-[(3-methylisoxazol-5-yl)methyl]-3-[(1-methylpyrazol-4-yl)methyl]-2,4-dioxo-quinazoline-6-sulfonamide], the pIC50 is 7.15 on Human Full Length PARG (read-out: PARG Biochem IC50) and 5.41 with PARG in HeLa cell line (setting [2]). For `Cc1n[nH]c(Cn2c(=O)n(Cc3cnn(C)c3)c(=O)c3cc(S(=O)(=O)NC4(CF)CC4)ccc32)n1` [Example 592, N-[1-(Fluoromethyl)cyclopropyl]-3-[(1-methylpyrazol-4-yl)methyl]-1-[(3-methyl-1H-1,2,4-triazol-5-yl)methyl]-2,4-dioxo-quinazoline-6-sulfonamide] the same measures were 6.52 and 4.94. The matching figures for `Cn1cc(Cn2c(=O)c3cc(S(=O)(=O)NC4(CF)CC4)ccc3n(Cc3nncs3)c2=O)cn1` [Example 589, N-[1-(Fluoromethyl)cyclopropyl]-3-[(1-methylpyrazol-4-yl)methyl]-2,4-dioxo-1-(1,3,4-thiadiazol-2-ylmethyl)quinazoline-6-sulfonamide]: 7.26 and 6.73. For `Cn1cc(Cn2c(=O)[nH]c3ccc(S(=O)(=O)NC4(CF)CC4)cc3c2=O)cn1` [Example 416, N-[1-(Fluoromethyl)cyclopropyl]-3-[(1-methylpyrazol-4-yl)methyl]-2,4-dioxo-1H-quinazoline-6-sulfonamide], the pIC50 on Human Full Length PARG (read-out: PARG Biochem IC50) was 6.37; with PARG in HeLa cell line (setting [1]), 5.88. Regarding `Cn1cc(Cn2c(=O)c3cc(S(=O)(=O)NC4(CF)CC4)ccc3n(CC#N)c2=O)cn1` [Example 439, 1-(Cyanomethyl)-N-[1-(fluoromethyl)cyclopropyl]-3-[(1-methylpyrazol-4-yl)methyl]-2,4-dioxo-quinazoline-6-sulfonamide], the pIC50 on Human Full Length PARG (read-out: PARG Biochem IC50) was 6.51; with PARG in HeLa cell line (setting [2]), 6.38. For `Cc1ncc(Cn2c(=O)c3cc(S(=O)(=O)NC4(C)CC4)ccc3n(CC#N)c2=O)s1` [Example 502, 1-(Cyanomethyl)-N-(1-methylcyclopropyl)-3-[(2-methylthiazol-5-yl)methyl]-2,4-dioxo-quinazoline-6-sulfonamide] the same measures were 6.55 and 6.77. With `Cc1cc(Cn2nc(NCCN(C)C)c3ccc(S(=O)(=O)NC4(C)CC4)cc3c2=O)on1` [Example 253], the pIC50 at Human Full Length PARG (setting [3]) is 6.42; in the test with PARG in HeLa cell line (setting [5]), 5.69.

For the compound `Cn1cc(Cn2c(=O)c3cc(S(=O)(=O)NC4(C)CC4)ccc3n(CCC(N)=O)c2=O)cn1` [Example 273], the pIC50 on Human Full Length PARG (setting [3]) was 6.54; with PARG in HeLa cell line (setting [5]) it was 4.84. For `Cn1cc(Cn2c(=O)c3cc(S(=O)(=O)NC4(C)CC4)ccc3n(CC3(C)COC3)c2=O)cn1` [Example 294] the same measures were 7.33 and 6.65. Take `Cc1cc(Cn2c(=O)n(CC#N)c(=O)c3cc(S(=O)(=O)NC4(C)CC4)ccc32)n(C)n1` [Example 192]: the pIC50 is 6.56 at Human Full Length PARG (setting [3]) and 5.96 with PARG in HeLa cell line (setting [4]).

Take `CC(C)=CCn1c(=O)n(Cc2cnn(C)c2)c(=O)c2cc(S(=O)(=O)NC3(CF)CC3)ccc21` [Example 609, N-[1-(Fluoromethyl)cyclopropyl]-1-(3-methylbut-2-enyl)-3-[(1-methylpyrazol-4-yl)methyl]-2,4-dioxo-quinazoline-6-sulfonamide]: the pIC50 on Human Full Length PARG (read-out: PARG Biochem IC50) was 7.29; in the test with PARG in HeLa cell line (setting [2]), 7.25. As to `Cn1c(=O)n(Cc2ccno2)c(=O)c2cc(S(=O)(=O)NC3(CF)CC3)ccc21` [Example 513, N-[1-(Fluoromethyl)cyclopropyl]-3-(isoxazol-5-ylmethyl)-1-methyl-2,4-dioxo-quinazoline-6-sulfonamide], the pIC50 in the test on PARG in HeLa cell line (setting [2]) is 6.27. `Cc1cc(Cn2c(=O)n(Cc3nnc(C)s3)c(=O)c3cc(S(=O)(=O)NC4(CF)CC4)ccc32)n(C)n1` [Example 603, 1-[(2,5-Dimethylpyrazol-3-yl)methyl]-N-[1-(fluoromethyl)cyclopropyl]-3-[(5-methyl-1,3,4-thiadiazol-2-yl)methyl]-2,4-dioxo-quinazoline-6-sulfonamide]: in the test with PARG in HeLa cell line (setting [2]), the pIC50 is 6.30. On to `Cn1c(=O)c2cc(S(=O)(=O)NC3(C)CC3)ccc2n(CC2CC2)c1=O` [Example 23], for which the pIC50 in the test with PARG in HeLa cell line (setting [5]) was 6.28. Consider `Cc1cc(Cn2c(=O)c3cc(S(=O)(=O)NC4(CF)CC4)ccc3n(CCF)c2=O)on1` [Example 526, 1-(2-Fluoroethyl)-N-[1-(fluoromethyl)cyclopropyl]-3-[(3-methylisoxazol-5-yl)methyl]-2,4-dioxo-quinazoline-6-sulfonamide], for which, in the test with PARG in HeLa cell line (setting [2]), the pIC50 is 6.88. For `CCC#CCn1c(=O)n(C)c(=O)c2cc(S(=O)(=O)NC3(C)CC3)ccc21` [Example 137], the pIC50 with PARG in HeLa cell line (setting [5]) was 6.22. “1-[(2,5-Dimethylpyrazol-3-yl)methyl]-3-[(1-methylpyrazol-4-yl)methyl]-2,4-dioxo-N-[1-(trideuteriomethyl)cyclopropyl]quinazoline-6-sulfonamide [Example 490]”: the pIC50 with PARG in HeLa cell line (setting [1]) is 7.15. With `Cn1cc(Cn2c(=O)c3cc(S(=O)(=O)NC4(C)CC4)ccc3n(CC3CN(C(=O)OC(C)(C)C)C3)c2=O)cn1` [Example 365], the pIC50 in the test with PARG in HeLa cell line (setting [5]) was 6.66.

As to `Cn1cc(Cn2c(=O)c3cc(S(=O)(=O)NC4(C)CC4)ccc3n(CC3CC3)c2=O)cn1` [Example 174], the pIC50 in the test with PARG in HeLa cell line (setting [5]) was 7.25. As to `Cn1cc(Cn2c(=O)[nH]c3ccc(S(=O)(=O)NC4(C)CC4)cc3c2=O)cn1` [Example 430, N-(1-Methylcyclopropyl)-3-[(1-methylpyrazol-4-yl)methyl]-2,4-dioxo-1H-quinazoline-6-sulfonamide], in the test on PARG in HeLa cell line (setting [2]), the pIC50 was 5.97.

Values taken from US10239843B2 (CANCER RESEARCH TECHNOLOGY LIMITED, priority 2014, dated 2019).
